According to ChEMBL document CHEMBL2384939, “Synthesis of pyrazolo[1,5-a]pyrimidine linked aminobenzothiazole conjugates as potential anticancer agents” (Bioorg Med Chem Lett, 2013):

Key:
Format in all cases: functional
SK-MEL-2 = assay: Cytotoxicity against human SK-MEL-2 cells after 48 hrs by MTT assay; settings: SK-MEL-2, 48 h
Malme-3M = assay: Cytotoxicity against human MALME-3M cells after 48 hrs by MTT assay
A549 [1] = assay: Cell cycle arrest at human A549 cells assessed as accumulation at sub G1 phase at 1 uM after 48 hrs by propidium iodide-staining-based FACS flow cytometric analysis (reference value: 1.02%)
OVCAR-4 = assay: Cytotoxicity against human OVCAR4 cells after 48 hrs by MTT assay; settings: OVCAR-4, 48 h
NCI-H322M = assay: Cytotoxicity against human NCI-H322M cells after 48 hrs by MTT assay
SF-539 = assay: Cytotoxicity against human SF539 cells after 48 hrs by MTT assay; settings: SF-539, 48 h
A549 [2] = assay: Cell cycle arrest at human A549 cells assessed as accumulation at G2/M phase at 2 uM after 48 hrs by propidium iodide-staining-based FACS flow cytometric analysis (reference value: 13.17%)
SF-295 = assay: Cytotoxicity against human SF295 cells after 48 hrs by MTT assay; settings: SF-295, 48 h
MDA-MB-468 = assay: Cytotoxicity against human MDA-MB-468 cells after 48 hrs by MTT assay; settings: MDA-MB-468, 48 h
UO-31 = assay: Cytotoxicity against human UO31 cells after 48 hrs by MTT assay; settings: UO-31, 48 h
RPMI-8226 = assay: Cytotoxicity against human RPMI8226 cells after 48 hrs by MTT assay; settings: RPMI-8226, 48 h
Hs-578T = assay: Cytotoxicity against human Hs578T cells after 48 hrs by MTT assay
SK-OV-3 = assay: Cytotoxicity against human SKOV3 cells after 48 hrs by MTT assay; settings: SK-OV-3, 48 h
MOLT-4 = assay: Cytotoxicity against human MOLT4 cells after 48 hrs by MTT assay; settings: MOLT-4, 48 h
BT-549 = assay: Cytotoxicity against human BT549 cells after 48 hrs by MTT assay; settings: BT-549, 48 h
A549 [3] = assay: Cell cycle arrest at human A549 cells assessed as accumulation at G0/G1 phase at 1 uM after 48 hrs by propidium iodide-staining-based FACS flow cytometric analysis (reference value: 81.33%)
IGROV-1 = assay: Cytotoxicity against human IGROV1 cells after 48 hrs by MTT assay; settings: IGROV-1, 48 h
HOP-62 = assay: Cytotoxicity against human HOP62 cells after 48 hrs by MTT assay; settings: HOP-62, 48 h
SNB-19 = assay: Cytotoxicity against human SNB19 cells after 48 hrs by MTT assay; settings: SNB-19, 48 h
TK-10 = assay: Cytotoxicity against human TK10 cells after 48 hrs by MTT assay; settings: TK-10, 48 h
SN12C = assay: Cytotoxicity against human SN12C cells after 48 hrs by MTT assay
SF-268 = assay: Cytotoxicity against human SF268 cells after 48 hrs by MTT assay; settings: SF-268, 48 h
SK-MEL-5 = assay: Cytotoxicity against human SK-MEL-5 cells after 48 hrs by MTT assay; settings: SK-MEL-5, 48 h
MDA-MB-435 = assay: Cytotoxicity against human MDA-MB-435 cells after 48 hrs by MTT assay; settings: MDA-MB-435, 48 h
SK-MEL-28 = assay: Cytotoxicity against human SK-MEL-28 cells after 48 hrs by MTT assay; settings: SK-MEL-28, 48 h
CAKI-1 = assay: Cytotoxicity against human Caki1 cells after 48 hrs by MTT assay; settings: CAKI-1, 48 h
KM12 = assay: Cytotoxicity against human KM12 cells after 48 hrs by MTT assay; settings: KM12, 48 h
LOX IMVI = assay: Cytotoxicity against human LOXIMVI cells after 48 hrs by MTT assay
[4] = Cytotoxicity against human NCI-ADR-RES cells after 48 hrs by MTT assay

Row | SMILES | GI50 (SK-MEL-2) [µM] | GI50 (Malme-3M) [µM] | Activity (A549 [1]) [%] | GI50 (NCI-H322M) [µM] | GI50 (SF-539) [µM] | Activity (A549 [2]) [%] | GI50 (SF-295) [µM] | GI50 (MDA-MB-468) [µM] | GI50 (Hs-578T) [µM] | GI50 (SK-OV-3) [µM] | GI50 (BT-549) [µM] | Activity (A549 [3]) [%] | GI50 (IGROV-1) [µM] | GI50 (HOP-62) [µM] | GI50 (SNB-19) [µM] | GI50 (TK-10) [µM] | GI50 (SN12C) [µM] | GI50 (SF-268) [µM] | also measured
1 | O=C(Nc1nc2ccccc2s1)c1cc(-c2ccc(F)cc2)n2nc(-c3ccccc3)cc2n1 | 3.1 | 3.7 | 4.01 | 5.8 | 2.6 | 64.7 | 4.1 | 5.1 | 2.2 | 2.3 | 2 | 35.34 | 4.3 | 2.2 | 5.2 | 2.4 | 6.4 | 3.8 | GI50 (OVCAR-4): 1.8 µM; GI50 (UO-31): 1.9 µM; GI50 (RPMI-8226): 5.5 µM; GI50 (MOLT-4): 21 µM
2 | COc1cc(-c2cc(C(=O)Nc3nc4ccccc4s3)nc3cc(-c4ccccc4)nn23)cc(OC)c1OC | 11.2 | 12 | 11.77 | 67.5 | 1.3 | 52.45 | 10.6 | 13.9 | 4.7 | 12.5 | 6.3 | 42.29 | 56 | 9.8 | 16.7 | 11.9 | 85 | 4.5 | GI50 (SK-MEL-5): 13.8 µM; GI50 (MDA-MB-435): 2.6 µM; GI50 (SK-MEL-28): 3.3 µM; GI50 (CAKI-1): 53.7 µM; GI50 (KM12): 22 µM; GI50 (LOX IMVI): 5.5 µM; GI50 [4]: 19.6 µM
